In patent US8119806B2, “Cicletanine derivatives” (Merck Sharp & Dohme Corp., priority 2008, dated 2012):
Where two headings read alike, the source gives them in different places.

System: isolated rabbit thoracic aorta preparations
Assay: Vessel relaxation in isolated rabbit thoracic aorta rings precontracted with noradrenaline
Conditions: Oryctolagus cuniculus
[1] = read-out: Vessel Relaxation Data ED50
[2] = read-out: vessel relaxation EC50

EC50 [1] [µM]	SMILES	EC50 [2] [µM]
126	CO[C@H]1C[C@H](C(=O)O)C[C@@H]1O[N+](=O)[O-]	–
18.8	CO[C@H]1CC(C(=O)Oc2c(C)ncc3c2CO[C@H]3c2ccc(Cl)cc2)C[C@@H]1O[N+](=O)[O-] (stereo partly drawn)	–
–	Cc1ncc2c(c1OC(=O)OC[C@@H]1C[C@H](O[N+](=O)[O-])[C@H](O[N+](=O)[O-])C1)COC2c1ccc(Cl)cc1 (stereo partly drawn) [Example 40]	< 50
0.237	CC(=O)N[C@H](C(=O)O)C(C)(C)SN=O (racemic) [SNAP, S-nitroso-N-acetylpenicillamine, reference compound]	–
–	Cc1ncc2c(c1OC(=O)OC[C@H]1C[C@H](O[N+](=O)[O-])[C@H](O[N+](=O)[O-])C1)COC2c1ccc(Cl)cc1 (stereo partly drawn) [Example 39]	< 50
–	Cc1ncc2c(c1OC(=O)O[C@H]1CO[C@H]3[C@@H]1OC[C@H]3O[N+](=O)[O-])COC2c1ccc(Cl)cc1 (stereo partly drawn) [Example 45]	< 50
35.8	Cc1ncc2c(c1O)CO[C@H]2c1ccc(Cl)cc1	–
–	CO[C@H]1C[C@@H](C(=O)Oc2c(C)ncc3c2CO[C@H]3c2ccc(Cl)cc2)C[C@@H]1O[N+](=O)[O-] [Example 60, (3S)-3-(4-chlorophenyl)-6-methyl-1,3-dihydrofuro[3,4-c]pyridin-7-yl(1R,3S,4S)-3-methoxy-4-(nitrooxy)cyclopentanecarboxylate]	< 50

SMILES	EC50 [1] [µM]	EC50 [2] [µM]
Cc1ncc2c(c1OC(=O)C1C[C@H](O[N+](=O)[O-])[C@H](O[N+](=O)[O-])C1)CO[C@H]2c1ccc(Cl)cc1 (stereo partly drawn)	6.29	–
